{
  "source": "patent US12390537B2",
  "about": "“Compositions of polymeric microdevices and methods of use thereof in cancer immunotherapy” (Massachusetts Institute of Technology, priority 2020, dated 2025)",
  "key": {"B16F10 melanoma tumors": {"tested_on": "B16F10 melanoma tumors", "assay": "Treatment of B16F10 melanoma tumors", "assay_type": "in vivo, mice", "conditions": "single injection of high-dose cGAMP-S (40 μg) and EP", "experimental": "2×10^5 4 T1 or 2×10^5 B16F10 cells were subcutaneously injected to the right rear flank of BALB/c mice or C57BL/6 female mice respectively. For orthotopic 4T1 model, 2×10^5 4 T1 cells were injected into the mammary fat pad. Seven days after tumor injection, B16F10 tumor-bearing mice were divided into 6 experimental groups (n=8 for each group): untreated, 1×empty microdevices(EP), 1×cGAMP-S plus EPs, 1×collagen gel, 4×cGAMP-S, and 1×cGAMP-S plus cGAMP-MPs, respectively (FIG. 3D). For the 4×cGAMP-S group, mice were intratumorally administered with 10 μg of cGAMP in 50 μL MC solution (cGAMP-S) at days 0, 4, 8, and 11 to replicate the four doses of soluble cGAMP. The overall does of cGAMP were 40 μg per mouse throughout the treatment period. […] Tumor size was measured every other day starting at day 7 post tumor inoculation with a digital caliper. Tumor volume was calculated using the following formula: length (mm)×width^2 (mm)×0.5. […]\nMice bearing B16F10 tumors were treated with the following 4 experimental groups (n=8): untreated, 1×EPs, 3×cGAMP-S, and 1×cGAMP-S plus cGAMP-MPs, respectively (FIG. 4A). […] The protein content in the supernatant was quantified using a bicinchoninic acid protein assay kit (Thermo Fisher Scientific, MA, USA). […]"}, "interleukin-6 (IL-6)": {"tested_on": "interleukin-6 (IL-6)", "assay": "Systemic IL-6 response of orthotopic 4T1 tumor-bearing mice", "assay_type": "in vivo", "conditions": "day 1 to 7; cGAMP-MPs single injection, cGAMP-S four injections"}, "[1]": {"tested_on": "phosphorylated-IRF3 (p-IRF3)", "assay": "Western blot of B16F10 tumors", "assay_type": "in vivo, mice", "conditions": "tumors at day 16; cGAMP-MPs single injection, cGAMP-S three injections", "experimental": "(§1) Mice bearing B16F10 tumors were treated with the following 4 experimental groups (n=8): untreated, 1×EPs, 3×cGAMP-S, and 1×cGAMP-S plus cGAMP-MPs, respectively (FIG. 4A). Tumors were collected at day 16 post tumor inoculation and cut into 50-100 mg small pieces in a 1.5 mL microcentrifuge tube. The tumors were lysed in radioimmunoprecipitation assay (RIPA) buffer (Sigma-Aldrich), homogenized, and centrifuged at 20130 rcf for 10 min. The protein content in the supernatant was quantified using a bicinchoninic acid protein assay kit (Thermo Fisher Scientific, MA, USA). Equal amounts of proteins (20 μg) were separated on a 4 to 15% gradient SDS-polyacrylamide gel (Bio-Rad, Hercules, CA) and electro-transferred to nitrocellulose membrane. The membranes were then blocked with 5% milk in tris-buffered saline supplemented with 0.05% Tween 20 and further incubated with GAPDH monoclonal antibody (Invitrogen, CA, cat. no. MA5-27912), phospho-TBK1/NAK (Ser172) (D52C2) Rabbit mAb (Cell Signaling Technology, cat. no. 5483S), or phospho-IRF-3 (S396) Rabbit mAb (Cell Signaling Technology, cat. no. 4947S) at 4° C. overnight. The membranes were then incubated with goat anti-rabbit IgG (H+L) Secondary Antibody, HRP (Invitrogen, cat. no. TG266717) for 1 h at room temperature. Protein bands were visualized by chemiluminescence using the ECL Western Blotting Substrate (Thermo Fisher Scientific, MA)."}, "[2]": {"tested_on": "phosphorylated-TBK1 (p-TBK1)", "assay": "Western blot of B16F10 tumors", "assay_type": "in vivo, mice", "conditions": "tumors at day 16; cGAMP-MPs single injection, cGAMP-S three injections", "experimental": "as §1"}, "4T1 lung metastasis": {"tested_on": "4T1 lung metastasis", "assay": "Treatment of metastatic 4T1 model", "assay_type": "in vivo, mice", "conditions": "day 34", "experimental": "2×10^5 4 T1 cells were injected into the mammary fat pad. Seven days after injection, tumor-bearing mice were divided into 3 experimental groups: untreated, 3×cGAMP-S, and 1×cGAMP-S plus cGAMP-MPs (10m of cGAMP-S, 5 PLGA-1 microdevices containing 10 μg of cGAMP, and 5 PLGA-2 microdevices containing 10 μg of cGAMP). The primary tumor was surgically removed at day 18 to extend survival. Mice were euthanized at day 34. Lung tissues were stained with India ink and fixed in Fekete's solution. Metastatic foci on the lung were counted under a microscope. Unstained lung tissues were fixed in formalin and stained by H&E. Quantitation of metastatic tumor cells of H&E stained sections was performed using an Aperio ImageScope using tuned positive pixel count algorithm. Briefly, input hue value in the positive pixel count algorithm was tuned to positively select normal lung tissues in red to orange range, while the tumors were negatively selected in purple. Percentage area of tumor metastasis per total lung area was calculated by the number of negative counts (purple)/the number of total counts (purple, orange, and red)×100%. Three H&E sections per lung at different depths were analyzed and averaged to obtain the percentage of tumor over the lung for one mouse. Four or five mice were analyzed for each group."}, "[3]": {"tested_on": "KPC pancreatic cancer cells", "assay": "Treatment of orthotopic pancreatic tumor model", "assay_type": "in vivo, mice", "conditions": "25 days; cGAMP-MPs three doses at days 0, 4, 8; cGAMP-S single high dose (30 μg) with EPs", "experimental": "A small incision was made to exteriorize the spleen and pancreas of C57BL/6 female mice. 5×10^5 KPC cells in 50 μL of PBS and Matrigel (1:1 mixture by volume) were injected into the tail of the pancreas. cGAMP-MPs (10 μg of cGAMP-S, 5 PLGA-1 microdevices containing 10 μg of cGAMP and 5 PLGA-2 microdevices containing 10 μg of cGAMP) or 1×cGAMP-S plus EPs (30m of cGAMP-S, 5 each of empty PLGA-1 and PLGA-2 microdevices) in 50 μL MC solution were also injected into the tail of the pancreas. The wound was then closed by an autoclip wound clip system. Mice were euthanized 25 days after tumor inoculation. The tumors were isolated and weighted by a balance. Metastasis to lungs was evaluated by H&E staining of lung sections."}, "[4]": {"tested_on": "ecto-nucleotide pyrophosphatase/phosphodiesterase 1 (ENPP1)", "conditions": "versus naturally produced 2′3′-cGAMP; Kato K. et al.; cited from earlier work"}},
  "data": [
    {"compound": "Nc1nc2c(ncn2[C@@H]2O[C@@H]3COP(=O)(O)O[C@H]4[C@@H](O)[C@H](n5cnc6c(N)ncnc65)O[C@@H]4COP(=O)(O)O[C@H]3[C@H]2O)c(=O)[nH]1", "note": "[cGAMP-S, 3′3′-cGAMP]", "values": [
      {"measurement": "tumor growth", "setting": "B16F10 melanoma tumors", "value": "exhibited an antitumor effect at early time points but failed to achieve sustained tumor inhibition"},
      {"measurement": "survival time", "setting": "B16F10 melanoma tumors; untreated 21 days", "value": 25, "unit": "days"},
      {"measurement": "systemic IL-6 levels", "setting": "interleukin-6 (IL-6)", "value": "elevated"},
      {"measurement": "expression of p-IRF3", "setting": "[1]", "value": "high expression levels"},
      {"measurement": "expression of p-TBK1", "setting": "[2]", "value": "high expression levels"},
      {"measurement": "number of metastatic foci on lung surfaces", "setting": "4T1 lung metastasis; cGAMP-MPs single injection day 7, cGAMP-S days 7, 11, 15", "value": "significantly decreased"},
      {"measurement": "relative area of tumors in the lungs", "setting": "4T1 lung metastasis; compared to untreated", "value": "reduced"},
      {"measurement": "metastasis to lungs", "setting": "[3]", "value": "did not show benefits"},
      {"measurement": "primary tumor growth in the pancreas", "setting": "[3]", "value": "did not show benefits"},
      {"measurement": "stability against ENPP1", "setting": "[4]", "value": "enhanced stability"}
    ]}
  ]
}
